Experiment [1] concerns the target T1, CDK2/cyclin A (Homo sapiens, UniProt P20248). The experiment can be described thus: Competitive binding assay (fluorescence polarisation, fluorescein tracer peptide). The settings on record: purified recombinant human CDK2/cyclin A; tracer fluorescein-Ahx-His-Ala-Lys-Arg-Arg-Leu-Ile-Phe-NH2; 1 h room temperature; read-out: Inhibitory activity IC50 ± SD, Competitive binding assay. The method, then: Competitive Binding Assay
This assay was performed using half-area black 96-well microtitre plates. To each well were added: 10 μL assay buffer (25 mM HEPES pH 7, 10 mM NaCl, 0.01% Nonidet P-40, 1 mM dithiothreitol), 10 μL test compound solution (in 10% aq DMSO), 10 μL CDK2/cyclin A (ca. 2 μg purified recombinant human kinase complex) in assay buffer, and 10 μL tracer peptide solution (150 nM fluorescein-Ahx-His-Ala-Lys-Arg-Arg-Leu-Ile-Phe-NH2; refer McInnes, C. et al., 2003, Curr. Med. Chem. Anti-Cancer Agents, 3, 57; Atkinson, G. E. et al., 2002, Bioorg. Med. Chem. Lett., 12, 2501) in assay buffer. After incubation with shaking for 1 h at room temperature, fluorescence polarisation at 485-520 nm was measured using a Tecan Ultra reader. Half-maximal inhibition (IC50) was calculated from dose—response curves.

The target in experiment [2] is T1, CDK2/cyclin A. The experiment can be described thus: Functional kinase assay (phosphorylation of GST-pRb(773-928)). It counts as biochemical. The settings on record: recombinant human CDK2/cyclin A; GST-pRb(773-928) substrate; 100 μM ATP; 30 min at 30° C.; read-out: Inhibitory activity IC50 ± SD, Functional kinase assay. The method, then:
CDK2/cyclin A kinase assays (phosphorylation of natural retinoblastoma protein (pRb)) were performed in 96-well plates using recombinant proteins. To each well were added: 10 μL assay buffer (50 mM HEPES pH 7.4, 20 mM β-glycerophosphate, 5 mM EGTA, 2 mM dithiothreitol, 1 mM NaVO3, and 20 mM MgCl2), 5 μL GST-pRb(773-928) substrate stock solution,10 μL test compound solution, 10 μL (2-5 μg protein) of purified recombinant human CDK2/cyclin A stock. The reaction was initiated by addition of 10 μL/well Mg/ATP mix (15 mM MgCl2, 100 μM ATP with 30-50 kBq per well of [γ-^32P]-ATP) and mixtures were incubated with shaking for 30 min at 30° C. Reactions were stopped on ice, followed by addition of 5 μL/well of glutathione-Sepharose 4B (Amersham Biosciences) and further incubation with shaking for 30 min at room temperature. The mixtures were then filtered on Whatman GF/C filterplates and washed 4 times with 0.2 mL/well of 50 mM HEPES containing 1 mM ATP. Plates were dried, sealed, and scintillant (Microscint 40) was added. Incorporated radioactivity was measured using a scintillation counter (TopCount, Packard Instruments, Pangbourne, Berks, UK). Half-maximal inhibition (IC50) was calculated from dose—response curves.

Molecules are shown by their SMILES. Non-standard residues stand in square brackets, D forms with d. Residues, ends and D or L forms follow the SMILES beside them. *: point of attachment. X14 = O=C(c1ccc(-n2cncn2)c([N+](=O)[O-])c1)*; X3 = Cc1nc(C(=O)*)nn1-c1ccc([N+](=O)[O-])cc1; X2 = CC(C)n1c(C(F)(F)F)nc2cc(C(=O)*)ccc21; X6 = O=C(COn1c(-c2ccccc2)nc2ccc(Cl)cc21)*; X10 = O=C(c1c(-c2ccccc2)nc2cccc(Cl)n12)*; X4 = Cc1nc(C(=O)*)nn1-c1cccc(C(F)(F)F)c1; X8 = COc1cc(-n2nc(C(=O)*)nc2C)c(Cl)cc1Cl; X11 = Cc1nc(C(=O)*)nn1-c1cc(Cl)cc(Cl)c1; Phe(4-F) = N[C@@H](Cc1ccc(F)cc1)C(=O)O; X13 = Cc1nc(C(=O)*)nn1-c1ccc(Cl)cc1Cl; X9 = O=C(COn1c(-c2ccccc2)nc2ccccc21)*; X5 = Cc1nc(C(=O)*)nn1-c1ccc(Cl)cc1; X7 = O=C(c1ccc2nc(-n3cccc3)sc2c1)*; X1 = Cc1nc(C(=O)*)nn1-c1ccc(F)cc1; X12 = O=C(c1ccc(N2CCNC2=S)cc1)*

Turning to `CC(C)C[C@H](NC(=O)[C@H](CCCNC(=N)N)NC(=O)c1c(-c2ccccc2)nc2cccc(Cl)n12)C(=O)N[C@@H](CC(N)=O)C(=O)N[C@@H](Cc1ccc(F)cc1)C(N)=O` [Compound 1] (X10-RLN[Phe(4-F)]-NH2), the IC50 is 12 ± 2 µM on CDK2/cyclin A [1] and 53 ± 25 µM on CDK2/cyclin A [2].

Turning to `COc1cc(-n2nc(C(=O)N[C@@H](CCCNC(=N)N)C(=O)N[C@@H](CC(C)C)C(=O)N[C@@H](CC(N)=O)C(=O)N[C@@H](Cc3ccc(F)cc3)C(N)=O)nc2C)c(Cl)cc1Cl` [Compound 2] (X8-RLN[Phe(4-F)]-NH2), the IC50 came out at 0.93 ± 0.05 µM at CDK2/cyclin A [1] and 11 ± 7 µM on CDK2/cyclin A [2].

In the case of `Cc1nc(C(=O)N[C@@H](CCCNC(=N)N)C(=O)N[C@@H](CC(C)C)C(=O)N[C@@H](CC(N)=O)C(=O)N[C@@H](Cc2ccc(F)cc2)C(N)=O)nn1-c1ccc(Cl)cc1` [Compound 3] (X5-RLN[Phe(4-F)]-NH2), the IC50 on CDK2/cyclin A [1] was determined as 4.1 ± 1.3 µM; at CDK2/cyclin A [2] it was 4.3 ± 2.1 µM.

Consider `Cc1nc(C(=O)N[C@@H](CCCNC(=N)N)C(=O)N[C@@H](CC(C)C)C(=O)N[C@@H](CC(N)=O)C(=O)N[C@@H](Cc2ccc(F)cc2)C(N)=O)nn1-c1ccc(Cl)cc1Cl` [Compound 4] (X13-RLN[Phe(4-F)]-NH2), for which the values for the IC50 at CDK2/cyclin A [1] and on CDK2/cyclin A [2] were 3.6 ± 0.6 µM and 6.4 ± 0.3 µM, respectively.

Regarding `CC(C)C[C@H](NC(=O)[C@H](CCCNC(=N)N)NC(=O)c1ccc(N2CCNC2=S)cc1)C(=O)N[C@@H](CC(N)=O)C(=O)N[C@@H](Cc1ccc(F)cc1)C(N)=O` [Compound 5] (X12-RLN[Phe(4-F)]-NH2), the half-maximal inhibitory concentration (IC50) on CDK2/cyclin A [1] came to 5.8 ± 1.6 µM; at CDK2/cyclin A [2], 19 ± 3 µM.

Consider `Cc1nc(C(=O)N[C@@H](CCCNC(=N)N)C(=O)N[C@@H](CC(C)C)C(=O)N[C@@H](CC(N)=O)C(=O)N[C@@H](Cc2ccc(F)cc2)C(N)=O)nn1-c1ccc(F)cc1` [Compound 6] (X1-RLN[Phe(4-F)]-NH2), for which the IC50 on CDK2/cyclin A [1] came out at 6.1 ± 1.2 µM; at CDK2/cyclin A [2], 4.4 ± 0.8 µM.

Consider `Cc1nc(C(=O)N[C@@H](CCCNC(=N)N)C(=O)N[C@@H](CC(C)C)C(=O)N[C@@H](CC(N)=O)C(=O)N[C@@H](Cc2ccc(F)cc2)C(N)=O)nn1-c1ccc([N+](=O)[O-])cc1` [Compound 7] (X3-RLN[Phe(4-F)]-NH2), for which the results for the IC50 on CDK2/cyclin A [1] and on CDK2/cyclin A [2] were 6.4 ± 1.8 µM and 5.4 ± 0.9 µM, respectively.

In the case of `CC(C)C[C@H](NC(=O)[C@H](CCCNC(=N)N)NC(=O)c1ccc(-n2cncn2)c([N+](=O)[O-])c1)C(=O)N[C@@H](CC(N)=O)C(=O)N[C@@H](Cc1ccc(F)cc1)C(N)=O` [Compound 8] (X14-RLN[Phe(4-F)]-NH2), the results for the IC50 on CDK2/cyclin A [1] and at CDK2/cyclin A [2] were 28 ± 4 µM and 26 ± 5 µM, respectively.

As for `CC(C)C[C@H](NC(=O)[C@H](CCCNC(=N)N)NC(=O)COn1c(-c2ccccc2)nc2ccccc21)C(=O)N[C@@H](CC(N)=O)C(=O)N[C@@H](Cc1ccc(F)cc1)C(N)=O` [Compound 9] (X9-RLN[Phe(4-F)]-NH2), the results for the IC50 at CDK2/cyclin A [1] and at CDK2/cyclin A [2] were 15 ± 2 µM and 37 ± 6 µM, respectively.

Regarding `Cc1nc(C(=O)N[C@@H](CCCNC(=N)N)C(=O)N[C@@H](CC(C)C)C(=O)N[C@@H](CC(N)=O)C(=O)N[C@@H](Cc2ccc(F)cc2)C(N)=O)nn1-c1cc(Cl)cc(Cl)c1` [Compound 10] (X11-RLN[Phe(4-F)]-NH2), the figures for the IC50 at CDK2/cyclin A [1] and at CDK2/cyclin A [2] were 2.1 ± 0.2 µM and 3.7 ± 0.2 µM, respectively.

As for `CC(C)C[C@H](NC(=O)[C@H](CCCNC(=N)N)NC(=O)COn1c(-c2ccccc2)nc2ccc(Cl)cc21)C(=O)N[C@@H](CC(N)=O)C(=O)N[C@@H](Cc1ccc(F)cc1)C(N)=O` [Compound 11] (X6-RLN[Phe(4-F)]-NH2), the results for the IC50 at CDK2/cyclin A [1] and at CDK2/cyclin A [2] were 12 ± 2 µM and 30 ± 16 µM, respectively.

In the case of `CC(C)C[C@H](NC(=O)[C@H](CCCNC(=N)N)NC(=O)c1ccc2nc(-n3cccc3)sc2c1)C(=O)N[C@@H](CC(N)=O)C(=O)N[C@@H](Cc1ccc(F)cc1)C(N)=O` [Compound 12] (X7-RLN[Phe(4-F)]-NH2), the IC50 on CDK2/cyclin A [1] came to 4.8 ± 0.4 µM; at CDK2/cyclin A [2] it was 15.3 ± 3.1 µM.

Consider `CC(C)C[C@H](NC(=O)[C@H](CCCNC(=N)N)NC(=O)c1ccc2c(c1)nc(C(F)(F)F)n2C(C)C)C(=O)N[C@@H](CC(N)=O)C(=O)N[C@@H](Cc1ccc(F)cc1)C(N)=O` [Compound 13] (X2-RLN[Phe(4-F)]-NH2), for which the IC50 on CDK2/cyclin A [1] turned out to be 2.6 ± 0.4 µM; on CDK2/cyclin A [2], 21.1 ± 7 µM.

For the compound `Cc1nc(C(=O)N[C@@H](CCCNC(=N)N)C(=O)N[C@@H](CC(C)C)C(=O)N[C@@H](CC(N)=O)C(=O)N[C@@H](Cc2ccc(F)cc2)C(N)=O)nn1-c1cccc(C(F)(F)F)c1` [Compound 14] (X4-RLN[Phe(4-F)]-NH2), the values for the IC50 on CDK2/cyclin A [1] and at CDK2/cyclin A [2] were 2.8 ± 0.42 µM and 3.65 ± 0.92 µM, respectively.

On to `Cc1cc(NC(=O)C2CCCCC2C(=O)N[C@@H](CC(C)C)C(=O)N[C@@H](CC(N)=O)C(=O)N[C@@H](Cc2ccc(F)cc2)C(N)=O)no1` (stereo partly shown) [Compound 15], for which the IC50 at CDK2/cyclin A [1] was 219 ± 10 µM; on CDK2/cyclin A [2], 87 ± 14 µM.

Regarding `CC(C)C[C@H](NC(=O)[C@H](CCCNC(=N)N)NC(=O)[C@@H](N)CCCNC(=N)N)C(=O)Nc1cccc(Oc2ccccc2)c1` [Compound 24], the IC50 was 56.9 ± 1.9 µM at CDK2/cyclin A [1] and 21.9 ± 4.9 µM at CDK2/cyclin A [2].

Take `CC(C)C[C@H](NC(=O)[C@H](CCCNC(=N)N)NC(=O)[C@@H](N)CCCNC(=N)N)C(=O)Nc1cccc(OCc2ccccc2)c1` [Compound 25]: the values for the IC50 on CDK2/cyclin A [1] and at CDK2/cyclin A [2] were 35 ± 2.03 µM and 29.8 ± 12 µM, respectively.

With `CC(C)C[C@H](NC(=O)[C@H](CCCNC(=N)N)NC(=O)[C@@H](N)CCCNC(=N)N)C(=O)NCc1cccc(Oc2ccccc2)c1` [Compound 26], the IC50 at CDK2/cyclin A [1] stood at 4.7 ± 0.7 µM; on CDK2/cyclin A [2] it was 8.81 ± 1.08 µM.

Regarding `CC(C)C[C@@H](CNc1cccc(Oc2ccccc2)c1)NC(=O)[C@H](CCCNC(=N)N)NC(=O)[C@@H](N)CCCNC(=N)N` [Compound 29], the IC50 on CDK2/cyclin A [1] came to 22.7 ± 2.72 µM; at CDK2/cyclin A [2] it was 8.55 ± 2.11 µM.

Regarding `CC(C)C[C@@H](CNc1cccc(OCc2ccccc2)c1)NC(=O)[C@H](CCCNC(=N)N)NC(=O)[C@@H](N)CCCNC(=N)N` [Compound 30], the IC50 was 58.2 ± 3.82 µM at CDK2/cyclin A [1] and 8.37 ± 4.24 µM on CDK2/cyclin A [2].

Values taken from patent US20060281687A1, “Cyclin groove inhibitors” (priority 2003, published 2006).
